Test system: sleep-stage specific pharmaco-EEG
Test: Sleep-wake pharmaco-EEG in telemeter-implanted rats
Type: in vivo, rat
From the text: Young adult male Sprague-Dawley (SD) rats (˜275-325 grams on arrival) from Envigo (Indianapolis, IN) were used in the study. Upon receipt, rats were assigned unique identification numbers and housed with 3 rats per cage in polycarbonate cages with micro-isolator filter tops. All rats were examined and weighed prior to initiation of the study to assure adequate health and suitability. During the course of the study, 12/12 light/dark cycles were maintained. The room temperature was maintained between […] and 23° C. with a relative humidity maintained around 50%. Chow and water were provided ad libitum for the duration of the study. Following surgery, rats were single housed. After a period of recovery (7-10 days), animals were transferred to an EEG recording room and placed over a DSI receiver for recordings.
• a. Vehicle A • i. Route: PO • ii. Volume: 10 ml/kg • iii. Formulation: Water • b. Compound I-14 at 3 mg/kg • i. Route: PO • ii. Volume: 10 ml/kg • iii. Formulation: 3 mg/kg in water • c. Compound I-14 at 10 mg/kg • i. Route: PO • ii. Volume: 10 ml/kg • iii. Formulation: 10 mg/kg in water • d. Compound I-14 at 30 mg/kg • i. Route: PO • ii. Volume: 10 ml/kg • iii. Formulation: 30 mg/kg in water
Briefly, animals were implanted with DSI Telemetry devices (F50-EET) in a 3 channel (lead pairs) configuration. Note the positive and negative lead placements for each location. Each of the EEG channels on the DSI transmitter functions as a differential input whereby the differential input measures the difference between the positive and negative leads. Frontal/Parietal (right): (+) 2 mm Anterior, 2 mm Lateral; (−) 4 mm Posterior, 2 mm Lateral; Frontal/Frontal (bihemispheric): (+) 2 mm Anterior, 2 mm Lateral (right); (−) 2 mm Anterior, 2 mm Lateral (left); and neck EMG.
This study followed a Monday and Thursday dosing/recording schedule, where Baseline EEG was recorded 2 hours and then rats received first dose of Compound I-14 at 0.3, 3 or 10 mg/kg or Vehicle A (all orally) between 7:50-8:00 AM and a second dose of the same after about 12 hours, and EEG continued 12 hours afterwards. • EEG Recordings began at 6 AM (at time lights turn on) • Dosing occurred at 7:50 am AM (1 hour 50 minutes after lights ON) • 2nd dosing (same compound) occurred at 7:50 PM (1 hour and 50 minutes after lights OFF) • EEG Recordings continued until 7:50 AM the following day (24 hours after 1st dose and 12 hours after 2nd dose).
Animals were tested in a cross-over design with at least 72-hour washout period between doses. On each testing day, animals received compound or vehicle orally just under 2 hours (7:50 AM) after lights on (6:00 AM). Data were recorded from 2 hours prior to dosing and recorded continuously for 24 hours post dose.
Raw EEG recordings were manually scored using Neuroscore software (Data Sciences International) to identify sleep stages: Active Wake, Quiet Wake, NREM and REM. Using NeuroScore (DSI), artifacts were removed offline from the data and sleep stages assigned manually for every 10 s epoch using EEG, EMG and Locomotor activity (LMA) by conventional methods as previously described (Ivarsson et al., 2005; Parmentier-Batteur et al., 2012; Leiser et al., 2014, 2015) using the fronto-parietal EEG, LMA and EMG: active wake (less regular, low-amplitude EEG with high EMG and LMA activity); quiet wake (less regular, low-amplitude EEG, with low EMG and no LMA activity); NREM (consisting of high-amplitude irregular waves with predominant delta (1-4 Hz), low EMG and no LMA); REM sleep (stable, low-amplitude waves dominated by theta (4-8 Hz) with near absent EMG and no LMA).
The sleep stage data were exported from a Neuroscore report template of sleep state time per each 15 min (2 hours pre-dose to 4 hours post-dose). The onset of the first sleep and first REM were also reported directly from a Neuroscore report template. […]

SMILES: Cc1cc(F)c(Cc2nc(-c3ncc(F)c(O)n3)cn3ccnc23)cc1F [Compound I-14, 5-fluoro-2-(8-(2,5-difluoro-4-methylbenzyl)imidazo[1,2-a]pyrazin-6-yl)pyrimidin-4-ol]
- EEG spectral power in QW (3 mg/kg PO): increased low gamma 0-180 minutes post dose
- EEG spectral power in QW (30 mg/kg PO): increased low gamma 0-240 and high gamma 0-180 minutes post dose
- EEG spectral power in NREM (30 mg/kg PO, ˜0-300 minutes post dose): decreased delta, theta, alpha and increased low and high gamma
- REM and NREM in hypnograms vs vehicle (A) group (high dose (30 mg/kg) PO): notable decrease in REM and NREM
- onset of NREM, REM and REM latency (high dose (30 mg/kg) PO): delayed
- Quiet Wake in hypnograms (highest dose (30 mg/kg) PO): increase in Quiet Wake

Reference: patent US20240207265A1, “TREATMENT OF CNS DISEASES WITH sGC STIMULATORS” (Tisento Therapeutics Inc., priority 2021, published 2024)
